Results as given in patent US20060063143A1, “Immortalized hypothalamic neuronal cell lines” (priority 2002, published 2006).

System: immortalized hypothalamic subclones N-7, N-22, N-29
Experiment: Functional cAMP response of immortalized subclones to peptide stimulation (RIA)
Type: cell-based, mouse
Details: cell lines N-7, N-22 and N-29; 10^-7 M (100 nM) peptide, 15 minutes, IBMX 100 μM
Excerpt: The onset of mood disorders, such as depression or anxiety, involve the altered function of multiple loci in the brain that regulate emotionality, memory and motivation (41-43). However, the inability to describe a cellular and molecular aetiology of these conditions likely reflects, in part, the existence of critical neurological circuits not yet understood. A novel family of neuropeptides on the carboxy-terminus of the teneurin transmembrane proteins (32, 44) is implicated in neuronal communication. In one embodiment, they modulate stress responses and anxiety (data not shown) and likely play a role in some psychiatric illnesses. In another embodiment, they are implicated as modulators of cell cycle and cell proliferation. These sequences are called teneurin C-terminal-associated peptides (TCAP-1 to 4) [SEQ. ID NOs 1-9]. These peptides may also have a cleavable amidation signal at the C-terminus, such as “GRR” or “GKR”. […]
The functional cAMP response of the immortalized subclones to TCAP peptide stimulation was also assessed and the results are shown in FIG. 18. […] N-7, N-22 and N-29 were analyzed for the cAMP response to peptide stimulation. […] Cells were scraped from the plate and kept at −20° C. until the amounts of intracellular cAMP were determined in triplicate by RIA (Biotechnologies Inc., Stoughton, Mass.) according to the manufacturer's instructions.

**Q.** “rtTCAP-3: teneurin C-terminal-associated peptide, rainbow trout TCAP-3, SEQ ID NO 9 plus amidation signal GKR; stress-regulating peptide provided by Dr. D. Lovejoy (QLLSGRKVLGYDGYYVLSIEQYPELADSANNIQFLRQSEI; C-terminal GKR amidation signal; Trout TCAP3)” was tested. Which “TCAP responsiveness of cell lines (cAMP response)” value did it give?
**A.** The value was “responsive”.
